From PMC3229595, “Discovery of Novel MDR-Mycobacterium tuberculosis Inhibitor by New FRIGATE Computational Screen” (PLoS ONE, 2011)
Converted amounts (≈) assume the structure as drawn.

How the values were obtained:
[1] = tested on: T1, Mycobacterium smegmatis Msmeg; assay: microbe, parasite or virus in culture; set-up: species or system Mycobacterium smegmatis DSM 43465; broth microdilution MIC in CAMHB, MTT staining, visual read-out; details: Mycolicibacterium smegmatis; read-out: Msmeg growth inhibition [MIC ug/mL]
T1 construct: DSM 43465
Experimental: The BEI parameter is conceptually very similar to previously published ligand efficiency (LE) parameters that normalize logarithmic affinity by non-hydrogen atom count rather than molecular weight ^5-7. Experimental Section Antibacterial in vitro assay for M. smegmatis. For MIC assays according to the Clinical and Laboratory Standards Institute M. smegmatis (strain DSM 43465) cells were grown in CAMHB medium at 35°C to an OD625nm higher than 0.09 followed by a dilution in medium to reach OD625nm of […] (“0.5 McFarland Standard”). These cell suspensions were brought to approximately 1 * 10^6 CFU/ml which corresponds to a 1:200 dilution. Resulting cell inoculi were diluted 1:1 with medium containing increasing concentrations of test compound as indicated in 96 well plates in duplicates (cell titer and purity of inoculum was checked in parallel by plating out on CAMHB-agar). After 24 – 48 h incubation MTT-solution (5 mg/ml thiaolyl blue tetrazoliumbromide) were added to stain wells with living cells and plates were photographed ^8. Wells with the lowest concentration of compound that were free of the dark brown color of bacteria were considered MICs. Ampicillin was used as a positive control antibiotic. Learning from the rich literature of potent in vitro enzyme inhibitors that were discarded due to the lack of antibacterial activity, we assayed the 31 selected FRIGATE hits for antibacterial activity prior to in vitro follow-up work. We utilized the less pathogenic and faster growing Mtb model organism Msmeg for primary growth inhibition testing.

[2] = biological target: T2, antigen 85C (Ag85C) (Mycobacterium tuberculosis, UniProt P9WQN9); assay: […]-HSQC NMR titration (chemical shift perturbation); type: binding
T2 construct: gene fbpC
T2 sequence (P9WQN9 46-340): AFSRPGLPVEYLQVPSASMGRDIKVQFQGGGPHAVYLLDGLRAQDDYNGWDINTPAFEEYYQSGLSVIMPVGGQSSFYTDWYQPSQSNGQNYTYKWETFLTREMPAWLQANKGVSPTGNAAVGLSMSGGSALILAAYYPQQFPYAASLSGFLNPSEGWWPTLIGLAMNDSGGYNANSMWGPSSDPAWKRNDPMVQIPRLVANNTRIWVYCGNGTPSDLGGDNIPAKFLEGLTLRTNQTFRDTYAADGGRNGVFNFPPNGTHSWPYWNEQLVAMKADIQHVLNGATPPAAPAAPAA

SMILES	MIC [1] [µg/mL]	Kd [2] [µM]
Cc1cccn2c(=O)c3cc(C(=O)NCCCn4ccnc4)n(Cc4ccccc4)c3nc12 [compound 1, N-[3-(1H-imidazol-1-yl)propyl]-1-benzyl-9-methyl-4-oxo-1,4-dihydropyrido[1,2-a]pyrrolo[2,3-d]pyrimidine-2-carboxamide]	< 50	177
CC1=C(C#N)c2nc(N)c(C#N)cc2C1=Cc1ccc(-c2ccccc2C(=O)O)o1 [compound 2, 2]	> 200	–
OC(CNC1CCc2ccccc21)COc1ccc(-c2csnn2)cc1 (stereo not shown) [compound 3, 3]	100 (≈ 272 µM)	–
